One test deals with Leishmania amazonensis. Briefly: Antileishmanial activity against intracellular amastigote stage of Leishmania amazonensis infected in human THP1 cells […] by microplate based assay. The format is functional, organism-based.
Test [1] in a line: Selectivity index, ratio of CC50 for human THP1 cells to IC50 for Leishmania amazonensis. It is filed as functional, THP-1.
Test [2] in a line: Cytotoxicity against human THP1 cells assessed as cell viability after 72 hrs by MTT assay. To be noted: THP-1, 72 h. The format is functional. Background: Formazan colour is commonly taken as a measure of viable cells.
Test [3] is described as follows: Selectivity index, ratio of CC50 for human THP1 cells to IC50 for Trypanosoma cruzi Tulahuen. It is filed as functional, THP-1.
In the next test the test system is Trypanosoma cruzi. Put plainly: Antiprotozoan activity against intracellular amastigote stage of Trypanosoma cruzi Tulahuen infected in human THP1 cells assessed as reduction in parasite viability after 48 hrs by microplate based assay. It is filed as functional, organism-based. The settings on record: THP-1, 48 h.

The values that follow come from ChEMBL document CHEMBL3785080, “Individual and combined antiparasitic effect of six plant metabolites against Leishmania amazonensis and Trypanosoma cruzi” (Bioorg Med Chem Lett, 2016).

Each structure is given as a SMILES string.

In turn, `CC1(C)C=Cc2c(ccc(C(=O)/C=C/c3ccc(O)cc3)c2O)O1` came in with an IC50 with Leishmania amazonensis of 23 µM. Also, the “Ratio CC50/IC50” value in test [1] is given as 3.31. Also, the CC50 in test [2] stood at 76.2 µM.
Regarding `COc1c(O)ccc2c1C(O)N(C)c1c-2ccc2cc3c(cc12)OCO3` (centres undefined), in the test with Leishmania amazonensis, the IC50 turned out to be 16.2 µM. Besides, the “Ratio CC50/IC50” value in test [1] was over 7.69. In addition, the CC50 in test [2] was over 125 µM.
The compound `CC(C)=CCc1c(O)c(CC=C(C)C)c2c(c1O)C(=O)C[C@@H](c1ccc(O)c(O)c1)O2` gave an IC50 in the test with Leishmania amazonensis of 29.2 µM. Besides, the “Ratio CC50/IC50” value in test [1] was 1.58. Also, the CC50 in test [2] was found to be 46.3 µM.
In the test with Leishmania amazonensis, `C[C@@H]1[C@H](O)[C@@H](C)/C=C/C=C/C=C/C=C/C=C/C=C/C=C/[C@H](O[C@@H]2O[C@H](C)[C@@H](O)[C@H](N)[C@@H]2O)C[C@@H]2O[C@](O)(C[C@@H](O)C[C@@H](O)[C@H](O)CC[C@@H](O)C[C@@H](O)CC(=O)O[C@H]1C)C[C@H](O)[C@H]2C(=O)O` [AMPHOTERICIN B] registered an IC50 of 0.07 µM. In test [1], the “Ratio CC50/IC50” value stood at 142. Also, in test [2], the CC50 came out at 10 µM.
Turning to `O=C(Cn1ccnc1[N+](=O)[O-])NCc1ccccc1` [BENZNIDAZOLE], the “Ratio CC50/IC50” value in test [3] was over 12. In test [2], the CC50 is over 125 µM. The IC50 in the test on Trypanosoma cruzi was 10.2 µM.
As to `COc1c(C=O)c(O)cc2c1C(=O)c1ccccc1C2=O` [DAMNACANTHAL], the “Ratio CC50/IC50” value in test [3] is recorded as 0.79. For the same compound, the CC50 in test [2] came out at 31.5 µM. The IC50 with Trypanosoma cruzi came out at 39.5 µM.
For the compound `CC(C)=CCc1c(O)ccc(C(=O)/C=C/c2ccc(O)cc2)c1O` [ISOBAVACHALCONE], the CC50 in test [2] was 36 µM.
Regarding `CC1(C)C=Cc2c(ccc(C(=O)/C=C/c3ccccc3)c2O)O1` [LONCHOCARPIN], the IC50 with Leishmania amazonensis is 21.8 µM; in the test with Trypanosoma cruzi it was 44.5 µM. The “Ratio CC50/IC50” value in test [1] worked out at 3.03; in test [3], 1.48. In addition, the CC50 in test [2] is 66 µM.

For orientation: IC50 means the concentration that gives 50% inhibition. For orientation: CC50 means the concentration at which the toxic effect on the cells reaches its halfway point.
